According to patent US20040229268A1, “Method and kit for identifying antibiotic-resistant microorganisms” (priority 2003, published 2004):
Marks after values point to notes of the source that are not given here.

Experiments:
[1] = test system: VanA and VanB gene sequences; assay: HPA for detecting VanA and VanB gene sequences (Example 12); assay type: binding, E. faecalis, E. faecium
Description: Double-stranded plasmids harboring inserts of either VanA or VanB gene sequences were prepared for use as control templates. More specifically, VanA gene sequences were amplified in a PCR protocol using primers having the sequences of VanA(+)464 Kpn and VanA(−)1325Bam. Similarly, VanB gene sequences were amplified using primers having the sequences of VanB(+)084 Kpn and VanB(−)1006Bam. Genomic DNA samples from bacteria known to have VanA or VanB genotypes were used as templates in the amplification reactions. Blunt-ended amplification products containing VanA gene sequences were ligated into a pPCR-[…] SK(+) (Stratagene; La Jolla, Calif.) plasmid cloning vector, and propagated in E. coli host bacteria using procedures that will be familiar to those having an ordinary level of skill in the art. Double-stranded amplification products containing VanB gene sequences were first digested with KpnI and BamHI, and then ligated into a similarly cleaved pBLUESCRIPT-II KS(+) (Stratagene; La Jolla, Calif.) plasmid cloning vector. Isolated double-stranded plasmid DNA served as controls in hybridization assays.
2′-deoxy probes having the sequences presented under Example 10 were prepared by standard phosphoramidite synthesis. AE labeling of the probes also was performed using standard procedures, as described herein and as will be familiar to those having an ordinary level of skill in the art. Samples of four different cultured VRE bacteria described under the previous Example were lysed essentially as described above. RNA in the samples was hydrolyzed and DNA denatured by incubation of the lysate with hydroxide at elevated temperature. In parallel procedures, samples of two plasmid clones harboring either the VanA or VanB inserts (as described under the previous Example) were also treated to denature DNA. All samples were neutralized by addition of a buffered HCl reagent. AE-labeled probes were added to each of the samples and then hybridized at 55-60° C. for 45 minutes to permit formation of complementary probe:target duplexes. The pan-bacterial probe (Probe Reagent 1, GEN-PROBE® MTC-NI Kit, catalog no. 4573) described under Example 2 was used as a positive control to confirm the presence of bacterial nucleic acid targets. Trials containing labeled probe in the absence of an added target (i.e., “probe alone”) served as negative controls. The AE label joined to probe molecules that remained single-stranded following the hybridization procedure were destroyed by treatment under mild alkaline conditions, and the extent of specific hybrid formation quantified by luminometry as described in the foregoing Examples.

[2] = test system: mecA gene; Staphylococcus ribosomal nucleic acids; assay: HPA after thermal lysis, base hydrolysis and neutralization (Examples 5-7); assay type: binding, S. aureus
Description: The cultured S. aureus specimens were lysed by suspending 1 μl loops of bacteria in 150 μl of lysis buffer and then incubating at 105° C. for 15 minutes. Next, 100 μl of 2 N LiOH base solution was added and RNA was hydrolyzed by incubating the mixtures at 60° C. for 15 minutes. Hydrolyzed samples were neutralized by the addition of 100 μl of a neutralizing reagent that included 2 N HCl and 100 mM succinate buffer (pH 5.5 prior to acidification with HCl). Specifically hybridized probe was detected by standard HPA, essentially as described in Example 1.
Specimens (1 μl loops of bacteria) were treated and tested essentially as described in Example 5 with the following differences: incubation for lysis was for 15 minutes and incubation for hybridization was for 45 minutes for samples shown in Tables 7-8, while incubation for lysis was for 10 minutes and incubation for hybridization was for 20 minutes for samples shown in Table 9. All of the base-treated solutions were neutralized by the addition of 250 μl of 0.8 N HCl containing 100 mM succinate.
2′-methoxy analogs of the AE-labeled DNA probes were prepared by standard phosphoramidite synthesis using 2′ methoxy phosphoramidite analogs. Additional linker positions, which are indicated by parentheses in Table 11, for probe 2 were also prepared for testing. Deoxy probes and 2′-methoxy probe analogs were tested essentially as described in Example 5, except as noted below. Probes synthesized using 2′-methoxy nucleotide analogs are particularly identified by the “MeO” designations. Brief summaries of the procedures used to obtain the results are appended to the tables.

[3] = ATCC 51299 (VanB), E. faecalis lysate
[4] = ATCC 51575 (VanB), E. faecalis lysate
[5] = ATCC 700221 (VanA), E. faecium lysate
[6] = ATCC 700802 (VanB), E. faecalis lysate
[7] = samples containing nucleic acids from VanB-positive VRE bacteria
[8] = Table 7, lysis 15 minutes, hybridization 45 minutes
[9] = Table 9, lysis 10 minutes, hybridization 20 minutes
[10] = Table 11, neutralize 250 μl 0.8 N HCl containing 100 mM succinate, hybridize 45 minutes at 60° C.
[11] = Table 8, lysis 15 minutes, hybridization 45 minutes
[12] = samples containing nucleic acids from the single VanA-positive bacterial isolate
[13] = VanA-positive bacterial sample ATCC # 700221
[14] = average over VanB-positive bacterial samples ATCC Nos. 51575, 700802 and 51299

| Sequence | Probe Hybridization (in RLU) [1, 3] | Probe Hybridization (in RLU) [1, 4] | Probe Hybridization (in RLU) [1, 5] | Probe Hybridization (in RLU) [1, 6] | Probe Hybridization (in RLU) ([1]; Probe Alone (no added target)) | Probe Hybridization (in RLU) ([1]; VanA clone (plasmid)) | Probe Hybridization (in RLU) ([1]; VanB clone (plasmid)) | hybridization signal (in words) [1, 7] | hybridization signal (in words) [1, 12] | also measured |
| --- | --- | --- | --- | --- | --- | --- | --- | --- | --- | --- |
| CCAAGCACCCGATATACTTTCTTTGCC (DNA, backbone and methylation of C not given here; further chemistry not fully specified; listed as Enterococcus faecalis) [VanB(−)1006] | 8335 RLU | 6300 RLU | 1485 RLU | 9116 RLU | 586 RLU | 1708 RLU | 27493 RLU | very strong signals | – | – |
| CCACTCAAGAGAGACAACATTTTCGACTAC (chemistry not given here) [S. aureus probe with helpers] | – | – | – | – | – | – | – | – | – | RLU ([2]; Table 6, GP18(Neg), MSSA ATCC #12600): 148,780 RLU; RLU ([2]; Table 6, GP1214(Neg), MSSA ATCC #29247): 203,725 RLU; RLU ([2]; Table 6, GP1217(Pos), MRSA ATCC #33591): 199,476 RLU; RLU ([2]; Table 6, GP1218(Pos), MRSA ATCC #43866): 163,825 RLU |
| CCGCAGCTTGCATGGACAAATCACTGGC (DNA, backbone and methylation of C not given here; further chemistry not fully specified; listed as Enterococcus faecalis) [VanB(+)084] | 7863 RLU | 6003 RLU | 768 RLU | 10119 RLU | 371 RLU | 716 RLU | 54711 RLU | very strong signals | – | – |
| CGATTGTGACACGATAGCCATCTTCATGTTGGAGC (DNA, backbone and methylation of C not given here; acridinium ester label on internal non-nucleotide linker; listed as Staphylococcus aureus) [probe 6] | – | – | – | – | – | – | – | – | – | GP18(Neg) RLU [2, 8]: 1195 RLU; GP1217(Pos) RLU [2, 8]: 38158 RLU; Probe alone Avg RLU [2, 8]: 6117 RLU; GP1217(Pos) RLU [2, 9]: 55947 RLU; Probe alone Avg RLU [2, 9]: 1004 RLU; GP1214(Neg) RLU [2, 10]: 1994 RLU; GP1217(Pos) RLU [2, 10]: 43307 RLU; Probe alone Avg RLU [2, 10]: 1540 RLU |
| CGCATCCATCAGGAAAACGAGCCGG (DNA, backbone and methylation of C not given here; acridinium ester (AE) label attached via linker; listed as Enterococcus faecalis) [VanB(+)428] | 8113 RLU | 6307 RLU | 683 RLU | 9657 RLU | 370 RLU | 684 RLU | 49242 RLU | very strong signals | – | – |
| CGGACGTTCAGTCATTTCTACTTCACCATTATCGC (DNA, backbone and methylation of C not given here; acridinium ester label on internal non-nucleotide linker; listed as Staphylococcus aureus) [probe 4] | – | – | – | – | – | – | – | – | – | GP18(Neg) RLU [2, 11]: 641 RLU; GP1217(Pos) RLU [2, 11]: 20192 RLU; Probe alone Avg RLU [2, 11]: 690 RLU; GP1217(Pos) RLU [2, 9]: 34352 RLU; Probe alone Avg RLU [2, 9]: 734 RLU |
| CGTTCAGTACAATGCGGCCG (DNA, backbone and methylation of C not given here; further chemistry not fully specified; listed as Enterococcus faecium) [VanA(−)1325] | 1182 RLU | 1761 RLU | 23523 RLU | 931 RLU | 368 RLU | 24378 RLU | 942 RLU | – | very strong hybridization signals | – |
| GAGCTTTGAATATCGCAGCCTAC (AE label linker 11/12, chemistry not fully specified; listed as Enterococcus faecalis) [Van A&B(−)734] | 5497 RLU | 5166 RLU | 8901 RLU | 7425 RLU | 240 RLU | 48999 RLU | 718† RLU | – | – | background-corrected hybridization signal relative to negative control (fold greater than background) [1, 13]: about 36 fold; background-corrected hybridization signal relative to negative control (fold greater than background) [1, 14]: about 24 fold; hybridization signal (in words) ([1]; nucleic acids from VRE bacteria either VanA-positive or VanB-positive): very strong signals |
| GCTGAGCTTTGAATATCGCAGCC (AE label linker 8/9, chemistry not fully specified; listed as Enterococcus faecium) [VanA(−)792] | 2983 RLU | 2254 RLU | 10627 RLU | 3653 RLU | 256 RLU | 52729 RLU | 505 RLU | – | very strong hybridization signals | background-corrected hybridization signal relative to negative control (fold greater than background) [1, 13]: about 40 fold; background-corrected hybridization signal relative to negative control (fold greater than background) [1, 14]: about 10.5 fold |
| GGGTTGCTCAGAGGAGCATGACGTATCGG (DNA, backbone and methylation of C not given here; further chemistry not fully specified; listed as Enterococcus faecium) [VanA(+)464] | 765 RLU | 696 RLU | 10910 RLU | 757 RLU | 374 RLU | 37434 RLU | 817 RLU | – | very strong hybridization signals | – |
